Target: T1, CCKB receptor (Mus musculus, UniProt P56481)
T1 construct: The whole brains from male mice (CD1 22-25 g; Charles River) were removed; from tissue; host or cells: cerebral cortex membranes of male CD1 mice
T1 sequence (P56481 1-453): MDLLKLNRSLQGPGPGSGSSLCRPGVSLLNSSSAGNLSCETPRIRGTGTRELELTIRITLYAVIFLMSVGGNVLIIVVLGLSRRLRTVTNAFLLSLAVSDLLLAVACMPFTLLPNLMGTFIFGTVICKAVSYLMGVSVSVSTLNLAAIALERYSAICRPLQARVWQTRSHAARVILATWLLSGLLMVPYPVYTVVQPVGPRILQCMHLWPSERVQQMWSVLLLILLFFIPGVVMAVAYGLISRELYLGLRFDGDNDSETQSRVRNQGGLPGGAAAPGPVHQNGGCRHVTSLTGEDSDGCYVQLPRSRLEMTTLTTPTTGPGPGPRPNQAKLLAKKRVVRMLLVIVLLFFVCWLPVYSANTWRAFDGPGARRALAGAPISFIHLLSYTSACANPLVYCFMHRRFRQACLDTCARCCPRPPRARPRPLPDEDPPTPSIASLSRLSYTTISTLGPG
Experiment: CCKB receptor radioligand binding assay in mouse cortical membranes
Conditions: [125I]-CCK8(S) 200 pM, 150 min at 21±3°
Experimental: The compounds of the examples were tested for binding at the CCKB receptor in mouse cortical membranes by means of a radioligand binding assay. The procedure was as follows:
The whole brains from male mice (CD1 22-25 g; Charles River) were removed and placed in ice-cold buffer (pH 7.2 @ 21±3°) of the following composition (mM); 10 HEPES, 130 NaCl, 4.7 KCl, 5 MgCl2, 1 EDTA and containing 0.25 gl^−1 bacitracin. The cortex was dissected, weighed and homogenised in 40 ml ice-cold buffer using a Teflon-in-glass homogeniser. The homogenate was centrifuged at 39800 g for 20 min […], the supernatant discarded and the pellet resuspended by homogenisation in fresh buffer. The homogenate was recentrifuged (39800 g, 20 min @ 4°) and the final pellet was resuspended in HEPES buffer to give a tissue concentration of 20 mg ml^−1 (original wet weight).
The assay was terminated by rapid filtration through pre-soaked Whatman GF/B filters using a Brandell Cell Harvester. The filters were washed (3×3 ml) with ice-cold 50 mM Tris-HCl (pH 7.4 @ 4° C.) and bound radioactivity determined by counting (1 min) in a gamma-counter.

| Molecule | CCKB pKi |
| --- | --- |
| 3-{[5-(2-Methyl-butyl)-2-o-tolyl-1H-imidazole-4-carbonyl]-amino}-benzoic Acid [Example 90] | 5.16 |
| 5-[(2-Adamantan-1-ylmethyl-5-phenyl-1H-pyrrole-3-carbonyl)-amino-methyl]-isophthalic Acid [Example 9] | 5.88 |

Same assay, conditions: [125I]-CCK8(S) 200 pM, 150 min at 21±3°, read-out: CCKB pKi (converted)

| Ki [nM] | Molecule |
| --- | --- |
| 2510 | Cc1ccccc1-c1nc(C(=O)N2CCCC(C(=O)O)C2)c(CCC23CC4CC(CC(C4)C2)C3)[nH]1 (racemic) [Example 93, (±)-1-[5-(2-Adamantan-1-yl-ethyl)-2-o-tolyl-1H-imidazole-4-carbonyl]-piperidine-3-carboxylic Acid] |
| 5370 | Cc1ccccc1-c1nc(C(=O)N2CCC(C(=O)O)CC2)c(CCC23CC4CC(CC(C4)C2)C3)[nH]1 (racemic) [Example 94, (±)-1-[5-(2-Adamantan-1-yl-ethyl)-2-o-tolyl-1H-imidazole-4-carbonyl]-piperidine-4-carboxylic Acid] |
| 49 | O=C(Nc1cc(-c2nnn[nH]2)cc(-c2nnn[nH]2)c1)c1cc(-c2ccccc2)[nH]c1CC12CC3CC(CC(C3)C1)C2 [Example 2, 2-Adamantan-1-ylmethyl-5-phenyl-1H-pyrrole-3-carboxylic Acid [3,5-bis-(1H-tetrazol-5-yl)-phenyl]-amide] |
| 1450 | O=C(O)c1cccc(NC(=O)c2cc(-c3ccccc3)[nH]c2CC23CC4CC(CC(C4)C2)C3)c1 [Example 3, 3-[(2-Adamantan-1-ylmethyl-5-phenyl-1H-pyrrole-3-carbonyl)-amino]-benzoic Acid] |
| 229 | O=C(Nc1cc(-c2nnn[nH]2)cc(-c2nnn[nH]2)c1)c1cc(-c2ccc3ccccc3c2)[nH]c1CC12CC3CC(CC(C3)C1)C2 [Example 5, 2-Adamantan-1-ylmethyl-5-naphthalen-2-yl-1H-pyrrole-3-carboxylic Acid [3,5-bis-(1H-tetrazol-5-yl)-phenyl]-amide] |
| 832 | O=C(O)c1ccccc1NC(=O)c1cc(-c2ccccc2)[nH]c1CC12CC3CC(CC(C3)C1)C2 [Example 6, 2-[(2-Adamantan-1-ylmethyl-5-phenyl-1H-pyrrole-3-carbonyl)-amino]-benzoic Acid] |
| 646 | O=C(O)c1ccc(NC(=O)c2cc(-c3ccccc3)[nH]c2CC23CC4CC(CC(C4)C2)C3)cc1 [Example 7, 4-[(2-Adamantan-1-ylmethyl-5-phenyl-1H-pyrrole-3-carbonyl)-amino]-benzoic Acid] |
| 1020 | Cn1c(-c2ccccc2)cc(C(=O)Nc2cc(C(=O)O)cc(C(=O)O)c2)c1CC12CC3CC(CC(C3)C1)C2 [Example 8, 5-[(2-Adamantan-1-ylmethyl-1-methyl-5-phenyl-1H-pyrrole-3-carbonyl)-amino]-isophthalic Acid] |
| 3020 | O=C(O)CCNC(=O)c1cc(-c2ccccc2)[nH]c1CC12CC3CC(CC(C3)C1)C2 [Example 10, 3-[(2-Adamantan-1-ylmethyl-5-phenyl-1H-pyrrole-3-carbonyl)-amino]-propionic Acid] |
| 1320 | O=C(O)c1cccc(NC(=O)c2cc(-c3ccc4ccccc4c3)[nH]c2CC2CCCCCC2)c1 [Example 14, 3-[(2-Cycloheptylmethyl-5-naphthalen-2-yl-1H-pyrrole-3-carbonyl)-amino]-benzoic Acid] |
| 182 | O=C(Nc1cc(-c2nnn[nH]2)cc(-c2nnn[nH]2)c1)c1cc(-c2ccc3ccccc3c2)[nH]c1CC1CCCCCC1 [Example 15, 2-Cycloheptylmethyl-5-naphthalen-2-yl-1H-pyrrole-3-carboxylic Acid [3,5-bis-(1H-tetrazol-5-yl)-phenyl]-amide] |
| 724 | O=C(Nc1cccc(-c2nnn[nH]2)c1)c1cc(-c2ccc3ccccc3c2)[nH]c1CC1CCCCCC1 [Example 16, 2-Cycloheptylmethyl-5-naphthalen-2-yl-1H-pyrrole-3-carboxylic Acid [3-(1H-tetrazol-5-yl)-phenyl]-amide] |
| 209 | O=C(O)c1cc(NC(=O)c2cc(-c3ccccc3)[nH]c2CCC23CC4CC(CC(C4)C2)C3)cc(C(=O)O)c1 [Example 17, 5-{[2-(2-Adamantan-1-yl-ethyl)-5-phenyl-1H-pyrrole-3-carbonyl]-amino}-isophthalic Acid] |
| 229 | O=C(Nc1cc(-c2nnn[nH]2)cc(-c2nnn[nH]2)c1)c1cc(-c2ccccc2)[nH]c1CCC12CC3CC(CC(C3)C1)C2 [Example 18, 2-(2-Adamantan-1-yl-ethyl)-5-phenyl-1H-pyrrole-3-carboxylic Acid [3,5-bis-(1H-tetrazol-5-yl)-phenyl]-amide] |
| 447 | O=C(O)c1cccc(NC(=O)c2cc(-c3ccccc3)[nH]c2CCC23CC4CC(CC(C4)C2)C3)c1 [Example 19, 3-{[2-(2-Adamantan-1-yl-ethyl)-5-phenyl-1H-pyrrole-3-carbonyl]-amino}-benzoic Acid] |

Target: T2, gastrin receptor (Rattus norvegicus, UniProt P30553)
T2 construct: The stomach was excised and flushed with ca. 1 ml of unbuffered physiological saline solution; from tissue; host or cells: isolated whole stomach of immature rats (ca. 21 days old)
T2 sequence (P30553 1-452): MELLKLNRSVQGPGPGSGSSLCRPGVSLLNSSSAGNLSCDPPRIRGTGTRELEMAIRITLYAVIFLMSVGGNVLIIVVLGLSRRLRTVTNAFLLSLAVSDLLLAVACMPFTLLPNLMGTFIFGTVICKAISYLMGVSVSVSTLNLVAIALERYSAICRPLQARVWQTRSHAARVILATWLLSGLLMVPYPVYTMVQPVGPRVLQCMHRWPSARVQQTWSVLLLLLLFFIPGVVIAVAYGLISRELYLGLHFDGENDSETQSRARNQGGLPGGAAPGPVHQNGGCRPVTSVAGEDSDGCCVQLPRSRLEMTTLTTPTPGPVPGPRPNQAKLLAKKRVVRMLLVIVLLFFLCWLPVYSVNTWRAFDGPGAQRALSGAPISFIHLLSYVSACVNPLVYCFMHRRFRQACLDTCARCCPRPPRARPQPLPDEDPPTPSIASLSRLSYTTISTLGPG
Experiment: gastrin antagonist activity in immature rat stomach assay (pentagastrin dose-response, acid secretion)
Conditions: isolated immature rat stomach, cumulative pentagastrin dose-response curves
In short: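 Gastrin antagonism was measured as the effect on cumulative pentagastrin dose-response curves of acid output, recorded by pH electrode in the perfusate of an excised immature rat stomach (ca. 21 days old). Test compound was placed in the serosal bath (37°, 3×10^−8 M 5-methylfurmethide) 60 min before pentagastrin.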

| Molecule | Gastrin pKb |
| --- | --- |
| (3-{[5-(Adamantan-1-yloxymethyl)-2-cyclohet-4-enyl-1H-imidazole-4-carbonyl]-amino}-phenyl)-acetic Acid [Example 231] | 7.49 |
| (±)-3-{[5-(2-Adamantan-1-yl-ethyl)-2-[1-(2-methyl-propyl)-piperidin-2-yl])-1H-imidazole-4-carbonyl]-amino}-benzoic Acid [Example 140] | 7.54 |
| (±)-5-{[5-(2-Adamantan-1-yl-ethyl)-2-[1-methyl-piperidin-2-yl])-1H-imidazole-4-carbonyl]-amino}-2-methyl-benzoic Acid [Example 141] | 7.21 |

Same assay, conditions: isolated immature rat stomach, cumulative pentagastrin dose-response curves, read-out: Gastrin pKb (converted)

| Kb [nM] | Molecule |
| --- | --- |
| 24.5 | O=C(O)c1cccc(NC(=O)c2nc(C3CCCCC3)[nH]c2COCC23CC4CC(CC(C4)C2)C3)c1 [Example 309, 3-{[5-(Adamantan-1-ylmethoxymethyl)-2-cyclohexyl-1H-imidazole-4-carbonyl]-amino}-benzoic Acid] |
| 115 | Cc1ccc(NC(=O)c2nc(C3CCCCC3)[nH]c2COCC23CC4CC(CC(C4)C2)C3)cc1C(=O)O [Example 310, 5-{[5-(Adamantan-1-ylmethoxymethyl)-2-cyclohexyl-1H-imidazole-4-carbonyl]-amino}-2-methyl-benzoic Acid] |
| 8.71 | O=C(O)c1cccc(NC(=O)c2nc(-c3c(Cl)cccc3Cl)[nH]c2COC23CC4CC(CC(C4)C2)C3)c1 [Example 311, 3-{[5-(Adamantan-1-yloxymethyl)-2-(2,6-dichloro-phenyl)-1H-imidazole-4-carbonyl]-amino}-benzoic Acid] |
| 34.7 | Cc1cc(C)c(-c2nc(COC34CC5CC(CC(C5)C3)C4)c(C(=O)Nc3cccc(C(=O)O)c3)n2O)c(C)c1 [Example 312, 3-{[5-(Adamantan-1-yloxymethyl)-2-(2,4,6-trimethyl-phenyl)-3-hydroxy-3H-imidazole-4-carbonyl]-amino}-benzoic Acid] |
| 18.6 | O=C(O)c1cccc(NC(=O)c2c(COC34CC5CC(CC(C5)C3)C4)nc(-c3c(Cl)cccc3Cl)n2O)c1 [Example 313, 3-{[5-(Adamantan-1-yloxymethyl)-2-(2,6-dichloro-phenyl)-3-hydroxy-3H-imidazole-4-carbonyl]-amino}-benzoic Acid] |
| 6.31 | O=C(O)c1cccc(NC(=O)c2c(COC34CC5CC(CC(C5)C3)C4)nc(C34CCC(CC3)CC4)n2O)c1 [Example 314, 3-{[5-(Adamantan-1-yloxymethyl)-2-bicyclo[2.2.2]oct-1-yl-3-hydroxy-3H-imidazole-4-carbonyl]-amino}-benzoic Acid] |

Reference: patent US6479531B1, “Gastrin and cholecystokinin receptor ligands” (James Black Foundation Limited, priority 1998, dated 2002)
